Reference: patent US20190315823A1, “SMALL CATIONIC ANTI-BIOFILM AND IDR PEPTIDES” (priority 2013, published 2019)
Ends that are not written are not given here.

Legend:
[1] = system: methicillin resistant Staphylococcus aureus (MRSA) biofilm; settings: approximate peptide concentration […] (around 3 μg/ml); compared to untreated samples
How it was run: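 Static biofilm assay: 1/100 dilutions of overnight cultures grown in BM2 medium (pH 7, glucose, Casamino Acids) or Luria Broth with peptide added at time zero. After 22–46 h, adherent biofilm was stained with crystal violet and read at 595 nm. Some peptides were also tested on K. pneumoniae under flow in a Bioflux system.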

[2] = system: human peripheral blood mononuclear cells (MCP-1); test: SPOT-synthesized derivative screen: production of chemokine MCP-1; format: cell-based; settings: Table 12, No LPS, human PBMC, peptide at ~18-24 μM; for MCP1: background subtracted 139 (HH2 derivatives), 170 (1018 derivatives), 242 (1002 and hybrid peptides) pg/ml
How it was run: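 PBMC from heparinized healthy-donor venous blood, Ficoll-separated, cultured at 0.75 to 1×10^6 cells/ml, 37 °C, 5% CO2, under the treatment regimens. MCP-1 in cell-free supernatants measured by capture ELISA.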

[3] = system: LPS-stimulated human peripheral blood mononuclear cells (IL1-β); format: cell-based; settings: Table 12, cells stimulated with 10 ng/ml LPS; for IL1β Production: LPS alone 1313 (HH2 derivatives), 1927 (1018 derivatives), 2455 (1002 and hybrid peptides) pg/ml

1002-L7: single substituted 1002 peptide (VQRWLILWRIRK-NH2) [Peptide 1002-L7]
% Biofilm inhibition [1]: 57%
Fold increase in MCP1 cf. untreated cells [2]: 1.8
MCP1 [2]: 199.1 pg/mL
Fold change in IL1β relative to no peptide LPS stimulated cells [3]: 0.05
IL1β Production [3]: 127 pg/mL

1002-L8: single substituted 1002 peptide (VQRWLIVLRIRK-NH2) [Peptide 1002-L8]
% Biofilm inhibition [1]: 57%
Fold increase in MCP1 cf. untreated cells [2]: 10.8
MCP1 [2]: 2367.1 pg/mL
Fold change in IL1β relative to no peptide LPS stimulated cells [3]: 0.06
IL1β Production [3]: 135 pg/mL

1002-L9: single substituted 1002 peptide (VQRWLIVWLIRK-NH2) [Peptide 1002-L9]
% Biofilm inhibition [1]: 57%
Fold increase in MCP1 cf. untreated cells [2]: 1.8
MCP1 [2]: 199.1 pg/mL
Fold change in IL1β relative to no peptide LPS stimulated cells [3]: 0.05
IL1β Production [3]: 127 pg/mL

1002-L10: single substituted 1002 peptide (VQRWLIVWRLRK-NH2) [Peptide 1002-L10]
% Biofilm inhibition [1]: 65%
Fold increase in MCP1 cf. untreated cells [2]: 3.0
MCP1 [2]: 493.6 pg/mL
Fold change in IL1β relative to no peptide LPS stimulated cells [3]: 0.05
IL1β Production [3]: 127 pg/mL

1002-L11: single substituted 1002 peptide (VQRWLIVWRILK-NH2) [Peptide 1002-L11]
% Biofilm inhibition [1]: 61%
Fold increase in MCP1 cf. untreated cells [2]: 9.5
MCP1 [2]: 2048.4 pg/mL
Fold change in IL1β relative to no peptide LPS stimulated cells [3]: 0.05
IL1β Production [3]: 127 pg/mL

1002-L12: single substituted 1002 peptide (VQRWLIVWRIRL-NH2) [Peptide 1002-L12]
% Biofilm inhibition [1]: 64%
Fold increase in MCP1 cf. untreated cells [2]: 4.7
MCP1 [2]: 905.7 pg/mL
Fold change in IL1β relative to no peptide LPS stimulated cells [3]: 0.05
IL1β Production [3]: 127 pg/mL

1002-Q1: single substituted 1002 peptide (QQRWLIVWRIRK-NH2) [Peptide 1002-Q1]
% Biofilm inhibition [1]: 77%
Fold increase in MCP1 cf. untreated cells [2]: 6.9
MCP1 [2]: 1423.5 pg/mL
Fold change in IL1β relative to no peptide LPS stimulated cells [3]: 0.05
IL1β Production [3]: 127 pg/mL

1002-Q3: single substituted 1002 peptide (VQQWLIVWRIRK-NH2) [Peptide 1002-Q3]
% Biofilm inhibition [1]: 70%
Fold increase in MCP1 cf. untreated cells [2]: 2.4
MCP1 [2]: 343.8 pg/mL
Fold change in IL1β relative to no peptide LPS stimulated cells [3]: 0.05
IL1β Production [3]: 127 pg/mL

1002-Q4: single substituted 1002 peptide (VQRQLIVWRIRK-NH2) [Peptide 1002-Q4]
% Biofilm inhibition [1]: 36%
Fold increase in MCP1 cf. untreated cells [2]: 0.9
MCP1 [2]: -28.8 pg/mL
Fold change in IL1β relative to no peptide LPS stimulated cells [3]: 0.47
IL1β Production [3]: 1165 pg/mL

1002-Q5: single substituted 1002 peptide (VQRWQIVWRIRK-NH2) [Peptide 1002-Q5]
% Biofilm inhibition [1]: 48%
Fold increase in MCP1 cf. untreated cells [2]: 0.9
MCP1 [2]: -36.2 pg/mL
Fold change in IL1β relative to no peptide LPS stimulated cells [3]: 0.07
IL1β Production [3]: 180 pg/mL

1002-Q6: single substituted 1002 peptide (VQRWLQVWRIRK-NH2) [Peptide 1002-Q6]
% Biofilm inhibition [1]: 22%
Fold increase in MCP1 cf. untreated cells [2]: 0.9
MCP1 [2]: -36.2 pg/mL
Fold change in IL1β relative to no peptide LPS stimulated cells [3]: 0.35
IL1β Production [3]: 859 pg/mL

1002-Q7: single substituted 1002 peptide (VQRWLIQWRIRK-NH2) [Peptide 1002-Q7]
% Biofilm inhibition [1]: 45%
Fold increase in MCP1 cf. untreated cells [2]: 0.9
MCP1 [2]: -36.2 pg/mL
Fold change in IL1β relative to no peptide LPS stimulated cells [3]: 0.06
IL1β Production [3]: 138 pg/mL

1002-Q8: single substituted 1002 peptide (VQRWLIVQRIRK-NH2) [Peptide 1002-Q8]
% Biofilm inhibition [1]: 20%
Fold increase in MCP1 cf. untreated cells [2]: 0.9
MCP1 [2]: -36.2 pg/mL
Fold change in IL1β relative to no peptide LPS stimulated cells [3]: 0.66
IL1β Production [3]: 1608 pg/mL

1002-Q9: single substituted 1002 peptide (VQRWLIVWQIRK-NH2) [Peptide 1002-Q9]
% Biofilm inhibition [1]: 41%
Fold increase in MCP1 cf. untreated cells [2]: 7.2
MCP1 [2]: 1514.2 pg/mL
Fold change in IL1β relative to no peptide LPS stimulated cells [3]: 0.05
IL1β Production [3]: 127 pg/mL

1002-Q10: single substituted 1002 peptide (VQRWLIVWRQRK-NH2) [Peptide 1002-Q10]
% Biofilm inhibition [1]: 39%
Fold increase in MCP1 cf. untreated cells [2]: 1.3
MCP1 [2]: 71.2 pg/mL
Fold change in IL1β relative to no peptide LPS stimulated cells [3]: 0.05
IL1β Production [3]: 127 pg/mL

1002-Q11: single substituted 1002 peptide (VQRWLIVWRIQK-NH2) [Peptide 1002-Q11]
% Biofilm inhibition [1]: 67%
Fold increase in MCP1 cf. untreated cells [2]: 13.5
MCP1 [2]: 3022.9 pg/mL
Fold change in IL1β relative to no peptide LPS stimulated cells [3]: 0.05
IL1β Production [3]: 127 pg/mL

1002-Q12: single substituted 1002 peptide (VQRWLIVWRIRQ-NH2) [Peptide 1002-Q12]
% Biofilm inhibition [1]: 65%
Fold increase in MCP1 cf. untreated cells [2]: 6.1
MCP1 [2]: 1225.7 pg/mL
Fold change in IL1β relative to no peptide LPS stimulated cells [3]: 0.05
IL1β Production [3]: 127 pg/mL

1002-R1: single substituted 1002 peptide (RQRWLIVWRIRK-NH2) [Peptide 1002-R1]
% Biofilm inhibition [1]: 67%
Fold increase in MCP1 cf. untreated cells [2]: 5.3
MCP1 [2]: 1043.2 pg/mL
Fold change in IL1β relative to no peptide LPS stimulated cells [3]: 0.05
IL1β Production [3]: 127 pg/mL

1002-R2: single substituted 1002 peptide (VRRWLIVWRIRK-NH2) [Peptide 1002-R2]
% Biofilm inhibition [1]: 60%
Fold increase in MCP1 cf. untreated cells [2]: 4.5
MCP1 [2]: 840.0 pg/mL
Fold change in IL1β relative to no peptide LPS stimulated cells [3]: 0.05
IL1β Production [3]: 127 pg/mL

1002-R4: single substituted 1002 peptide (VQRRLIVWRIRK-NH2) [Peptide 1002-R4]
% Biofilm inhibition [1]: 36%
Fold increase in MCP1 cf. untreated cells [2]: 0.9
MCP1 [2]: -36.2 pg/mL
Fold change in IL1β relative to no peptide LPS stimulated cells [3]: 0.34
IL1β Production [3]: 834 pg/mL

1002-R5: single substituted 1002 peptide (VQRWRIVWRIRK-NH2) [Peptide 1002-R5]
% Biofilm inhibition [1]: 62%
Fold increase in MCP1 cf. untreated cells [2]: 0.9
MCP1 [2]: -36.2 pg/mL
Fold change in IL1β relative to no peptide LPS stimulated cells [3]: 0.14
IL1β Production [3]: 349 pg/mL

1002-R6: single substituted 1002 peptide (VQRWLRVWRIRK-NH2) [Peptide 1002-R6]
% Biofilm inhibition [1]: 13%
Fold increase in MCP1 cf. untreated cells [2]: 1.0
MCP1 [2]: 1.8 pg/mL
Fold change in IL1β relative to no peptide LPS stimulated cells [3]: 0.25
IL1β Production [3]: 605 pg/mL

1002-R7: single substituted 1002 peptide (VQRWLIRWRIRK-NH2) [Peptide 1002-R7]
% Biofilm inhibition [1]: 58%
Fold increase in MCP1 cf. untreated cells [2]: 2.1
MCP1 [2]: 270.8 pg/mL
Fold change in IL1β relative to no peptide LPS stimulated cells [3]: 0.16
IL1β Production [3]: 382 pg/mL

1002-R8: single substituted 1002 peptide (VQRWLIVRRIRK-NH2) [Peptide 1002-R8]
% Biofilm inhibition [1]: 23%
Fold increase in MCP1 cf. untreated cells [2]: 1.0
MCP1 [2]: -11.7 pg/mL
Fold change in IL1β relative to no peptide LPS stimulated cells [3]: 0.36
IL1β Production [3]: 892 pg/mL
